Test results taken from the NIST ThermoML archive (doi:10.1016/j.jct.2016.07.005).
Numbers after ± are expanded uncertainties.

Key:
[1] = 100 kPa, Liquid; for viscosity: Concentric cylinders viscometry; for mass density: Vibrating tube method
[2] = refractive index (Na D-line) (dimensionless); conditions: 100 kPa, Liquid, Standard Abbe refractometry
[3] = refractive index (Na D-line) (dimensionless); xn = mol fraction of the nth substance listed; conditions: 100 kPa, Liquid, Standard Abbe refractometry, x2 = 0
[4] = xn = mol fraction of the nth substance listed; conditions: 100 kPa, Liquid, x2 = 0; for viscosity: Concentric cylinders viscometry; for mass density: Vibrating tube method

CC(O)CO (centres undefined) [1,2-propanediol]
Conditions	mass density, [1] [kg/m3]	refractive index, [2]	viscosity, [1] [mPa·s]
293.15 K	1036.3 ± 1	1.43279 ± 0.00036	59.56 ± 1.2
298.15 K	1032.62 ± 1	1.43111 ± 0.00036	44.14 ± 0.9
303.15 K	1028.91 ± 1	1.42941 ± 0.00036	33.25 ± 0.68
308.15 K	1025.16 ± 1	1.42773 ± 0.00036	25.5 ± 0.52
313.15 K	1021.39 ± 1	1.42601 ± 0.00036	19.78 ± 0.4
318.15 K	1017.57 ± 1	1.42429 ± 0.00036	15.76 ± 0.32
323.15 K	1013.72 ± 1	1.42257 ± 0.00036	12.75 ± 0.26

CC(O)CO (centres undefined) [1,2-propanediol] + CN1CCC[C@H]1c1cccnc1
Conditions	mass density, [4] [kg/m3]	refractive index, [3]	viscosity, [4] [mPa·s]
293.15 K	1036.3 ± 1	1.43279 ± 0.00036	59.56 ± 1.2
298.15 K	1032.62 ± 1	1.43111 ± 0.00036	44.14 ± 0.9
303.15 K	1028.91 ± 1	1.42941 ± 0.00036	33.25 ± 0.68
308.15 K	1025.16 ± 1	1.42773 ± 0.00036	25.5 ± 0.52
313.15 K	1021.39 ± 1	1.42601 ± 0.00036	19.78 ± 0.4
318.15 K	1017.57 ± 1	1.42429 ± 0.00036	15.76 ± 0.32
323.15 K	1013.72 ± 1	1.42257 ± 0.00036	12.75 ± 0.26

CN1CCC[C@H]1c1cccnc1 [(-)-3-(N-methylpyrrolidino)pyridine]
Conditions	mass density, [1] [kg/m3]	refractive index, [2]	viscosity, [1] [mPa·s]
293.15 K	1010.23 ± 1	1.52665 ± 0.0004	4.694 ± 0.098
298.15 K	1006.16 ± 1	1.52439 ± 0.0004	4.048 ± 0.085
303.15 K	1002.1 ± 1	1.52214 ± 0.0004	3.518 ± 0.074
308.15 K	998.055 ± 1	1.51988 ± 0.0004	3.088 ± 0.065
313.15 K	994.014 ± 1	1.5179 ± 0.0004	2.758 ± 0.058
318.15 K	989.984 ± 1	1.51592 ± 0.0004	2.411 ± 0.051
323.15 K	985.962 ± 1	1.51373 ± 0.0004	2.195 ± 0.046

CCCCO [butan-1-ol]
Conditions	mass density, [1] [kg/m3]	refractive index, [2]	viscosity, [1] [mPa·s]
293.15 K	809.819 ± 1	1.39922 ± 0.00036	2.914 ± 0.06
298.15 K	805.995 ± 1	1.39719 ± 0.00036	2.564 ± 0.053
303.15 K	802.148 ± 1	1.39517 ± 0.00036	2.258 ± 0.047
308.15 K	798.276 ± 1	1.39311 ± 0.00036	1.994 ± 0.041
313.15 K	794.372 ± 1	1.39102 ± 0.00036	1.777 ± 0.037
318.15 K	790.429 ± 1	1.38896 ± 0.00036	1.589 ± 0.033
323.15 K	786.444 ± 1	1.38688 ± 0.00036	1.372 ± 0.029
